Targets include Histone deacetylase 4 (Homo sapiens, UniProt P56524); Histone deacetylase 2 (Homo sapiens, UniProt Q92769); Histone deacetylase 5 (Homo sapiens, UniProt Q9UQL6).
Data set [1] has as its target T1, Protein deacetylase HDAC6 (Homo sapiens, UniProt Q9UBN7).
T1 sequence (Q9UBN7 whole entry): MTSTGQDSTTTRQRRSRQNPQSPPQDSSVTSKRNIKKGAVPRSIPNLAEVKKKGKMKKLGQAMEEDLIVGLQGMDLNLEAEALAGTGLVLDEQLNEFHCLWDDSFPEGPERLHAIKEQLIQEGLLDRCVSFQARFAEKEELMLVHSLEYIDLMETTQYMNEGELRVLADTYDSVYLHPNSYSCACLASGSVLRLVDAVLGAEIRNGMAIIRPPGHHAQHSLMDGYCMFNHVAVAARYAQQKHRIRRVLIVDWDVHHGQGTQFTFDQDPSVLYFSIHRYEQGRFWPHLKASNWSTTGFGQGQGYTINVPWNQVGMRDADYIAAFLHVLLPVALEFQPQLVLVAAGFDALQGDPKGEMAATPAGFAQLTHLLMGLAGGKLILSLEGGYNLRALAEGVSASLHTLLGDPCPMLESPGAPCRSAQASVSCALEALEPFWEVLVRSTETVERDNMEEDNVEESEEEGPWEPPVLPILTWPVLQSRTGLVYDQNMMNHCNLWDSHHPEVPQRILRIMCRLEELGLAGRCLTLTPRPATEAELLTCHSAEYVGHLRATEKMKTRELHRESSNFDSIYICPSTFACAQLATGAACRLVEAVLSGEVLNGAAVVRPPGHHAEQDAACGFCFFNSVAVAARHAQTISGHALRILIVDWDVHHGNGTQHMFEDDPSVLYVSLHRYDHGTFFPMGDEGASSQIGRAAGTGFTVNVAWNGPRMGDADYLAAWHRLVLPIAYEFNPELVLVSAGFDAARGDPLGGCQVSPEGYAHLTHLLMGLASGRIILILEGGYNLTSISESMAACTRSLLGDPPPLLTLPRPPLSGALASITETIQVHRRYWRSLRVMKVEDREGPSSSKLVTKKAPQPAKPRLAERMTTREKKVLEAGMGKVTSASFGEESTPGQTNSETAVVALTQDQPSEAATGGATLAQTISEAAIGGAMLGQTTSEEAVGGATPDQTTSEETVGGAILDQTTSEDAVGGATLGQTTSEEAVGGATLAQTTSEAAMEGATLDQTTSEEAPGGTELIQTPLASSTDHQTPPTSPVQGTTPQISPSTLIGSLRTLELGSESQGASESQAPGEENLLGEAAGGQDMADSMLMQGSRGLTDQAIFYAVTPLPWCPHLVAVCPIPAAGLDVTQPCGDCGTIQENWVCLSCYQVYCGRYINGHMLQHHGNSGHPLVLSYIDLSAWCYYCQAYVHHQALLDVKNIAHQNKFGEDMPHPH
As to the kind of experiment: Inhibition of recombinant N-GST-tagged HDAC6 (unknown origin) assessed as reduction in deacetylation of Ac-Arg-Gly-Lys(Ac)-AMC substrate by fluorescence assay.

Data set [2] has as its target T1, Protein deacetylase HDAC6. As to the kind of experiment: Inhibition of HDAC6 in human HeLa cells assessed as reduction in K40 hyperacetylation of alpha-tubulin incubated for 6 hrs by immunofluorescence assay. The format is cell-based.
The next data set deals with HeLa. As to the kind of experiment: Selectivity index, ratio of IC50 for HDAC1/HDAC2 in human HeLa cells nuclear extracts to IC50 for recombinant N-GST-tagged HDAC6 (unknown origin). Format: cell-based.
The target in data set [3] is Histone deacetylase (HDAC1 and HDAC2) (Homo sapiens) (UniProt Q13547+Q92769). As to the kind of experiment: Inhibition of HDAC1/HDAC2 in human HeLa cells assessed as reduction in acetylated histone levels at 20 uM incubated for 24 hrs by immunofluorescence assay. Format: cell-based.
Another data set deals with Histone deacetylase 1 (Homo sapiens, UniProt Q13547). As to the kind of experiment: Inhibition of full length GST-tagged human HDAC1 using Arg-His-Lys-Lys(Ac) substrate incubated for 2 hrs by fluorescence assay.
Data set [4] has as its target T2, Polyamine deacetylase HDAC10 (Homo sapiens, UniProt Q969S8).
T2 sequence (Q969S8 whole entry): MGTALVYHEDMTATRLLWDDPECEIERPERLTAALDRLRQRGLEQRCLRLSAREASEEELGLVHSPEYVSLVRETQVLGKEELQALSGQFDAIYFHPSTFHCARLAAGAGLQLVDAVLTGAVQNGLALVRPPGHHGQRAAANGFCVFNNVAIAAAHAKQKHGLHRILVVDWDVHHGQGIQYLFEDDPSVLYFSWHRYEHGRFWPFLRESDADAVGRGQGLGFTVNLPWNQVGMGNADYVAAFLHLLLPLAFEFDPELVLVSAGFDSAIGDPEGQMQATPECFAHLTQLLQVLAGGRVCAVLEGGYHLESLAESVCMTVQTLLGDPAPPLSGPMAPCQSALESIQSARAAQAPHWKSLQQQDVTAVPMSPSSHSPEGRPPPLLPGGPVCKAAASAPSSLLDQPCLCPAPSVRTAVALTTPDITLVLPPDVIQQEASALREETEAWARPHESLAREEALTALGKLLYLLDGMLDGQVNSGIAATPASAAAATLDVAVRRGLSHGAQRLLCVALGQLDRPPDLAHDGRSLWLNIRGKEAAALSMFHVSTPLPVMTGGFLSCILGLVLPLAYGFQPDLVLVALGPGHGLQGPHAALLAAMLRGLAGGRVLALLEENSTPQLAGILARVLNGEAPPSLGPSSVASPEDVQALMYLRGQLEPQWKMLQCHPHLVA
As to the kind of experiment: Inhibition of N-terminal GST-tagged human HDAC10 (1 to 481 residues) using Arg-His-Lys-Lys(Ac) substrate incubated for 2 hrs by fluorescence assay.

The next data set concerns the target Histone deacetylase 3 (Homo sapiens, UniProt O15379). As to the kind of experiment: Inhibition of full length C-terminal 6x-His tagged human HDAC3 using Arg-His-Lys-Lys(Ac) substrate incubated for 2 hrs by fluorescence assay.
Data set [5] in a line: Permeability in human Caco2 cells at pH 7.4. The format is ADME, cell-based. To be noted: Caco-2, pH 7.4, read-out: permeability.
The target in the next data set is T3, Histone deacetylase 8 (Homo sapiens, UniProt Q9BY41).
T3 sequence (Q9BY41 whole entry): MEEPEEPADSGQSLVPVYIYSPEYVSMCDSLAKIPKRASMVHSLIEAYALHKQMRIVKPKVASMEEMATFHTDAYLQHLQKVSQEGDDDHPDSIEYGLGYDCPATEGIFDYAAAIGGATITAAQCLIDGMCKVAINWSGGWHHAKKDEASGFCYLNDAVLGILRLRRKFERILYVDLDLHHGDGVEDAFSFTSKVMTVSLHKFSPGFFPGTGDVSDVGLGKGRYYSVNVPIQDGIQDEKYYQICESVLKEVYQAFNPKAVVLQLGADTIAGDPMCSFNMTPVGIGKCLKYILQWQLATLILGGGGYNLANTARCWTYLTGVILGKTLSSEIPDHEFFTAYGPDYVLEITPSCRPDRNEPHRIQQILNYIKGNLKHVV
As to the kind of experiment: Inhibition of full length C-terminal 6x-His tagged human HDAC8 using Arg-His-Lys(Ac)-Lys(Ac) substrate incubated for 2 hrs by fluorescence assay.

Data set [6] in a line: Aqueous solubility in pH 6.8 buffer solution. Format: physicochemical.
For a further data set, the target named is T4, Histone deacetylase 11 (Homo sapiens, UniProt Q96DB2).
T4 sequence (Q96DB2 whole entry): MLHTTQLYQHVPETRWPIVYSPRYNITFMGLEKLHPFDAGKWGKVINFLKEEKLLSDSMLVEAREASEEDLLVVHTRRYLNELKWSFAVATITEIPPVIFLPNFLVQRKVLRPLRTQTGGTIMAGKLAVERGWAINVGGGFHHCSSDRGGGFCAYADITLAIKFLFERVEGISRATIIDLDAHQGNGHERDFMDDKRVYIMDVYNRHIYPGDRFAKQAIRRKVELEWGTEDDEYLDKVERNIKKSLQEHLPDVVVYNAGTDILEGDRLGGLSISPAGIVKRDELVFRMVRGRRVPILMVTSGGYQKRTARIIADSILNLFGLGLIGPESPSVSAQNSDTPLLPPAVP
As to the kind of experiment: Inhibition of full length N-terminal GST-tagged human HDAC11 using Arg-His-Lys-Lys(Ac) substrate incubated for 2 hrs by fluorescence assay.

Molecules are shown by their SMILES. pIC50: −log10 of the molar value.

Chain of Histone deacetylase (HDAC1 and HDAC2) (Homo sapiens) (Q13547 whole entry, looked up): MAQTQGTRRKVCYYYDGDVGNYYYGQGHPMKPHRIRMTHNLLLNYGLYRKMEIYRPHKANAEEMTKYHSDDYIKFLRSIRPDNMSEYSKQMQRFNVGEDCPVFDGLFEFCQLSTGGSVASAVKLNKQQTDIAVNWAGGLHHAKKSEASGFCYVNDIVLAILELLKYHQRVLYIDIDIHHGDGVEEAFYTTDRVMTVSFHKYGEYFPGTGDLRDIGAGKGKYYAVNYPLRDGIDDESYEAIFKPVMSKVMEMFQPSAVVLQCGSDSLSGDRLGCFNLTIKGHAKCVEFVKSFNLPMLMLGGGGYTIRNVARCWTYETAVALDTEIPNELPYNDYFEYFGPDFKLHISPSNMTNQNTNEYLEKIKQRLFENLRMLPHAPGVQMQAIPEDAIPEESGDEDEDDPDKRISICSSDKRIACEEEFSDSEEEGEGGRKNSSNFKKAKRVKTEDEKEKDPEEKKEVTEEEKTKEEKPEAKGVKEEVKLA
Chain of Histone deacetylase (HDAC1 and HDAC2) (Homo sapiens) (Q92769 whole entry, looked up): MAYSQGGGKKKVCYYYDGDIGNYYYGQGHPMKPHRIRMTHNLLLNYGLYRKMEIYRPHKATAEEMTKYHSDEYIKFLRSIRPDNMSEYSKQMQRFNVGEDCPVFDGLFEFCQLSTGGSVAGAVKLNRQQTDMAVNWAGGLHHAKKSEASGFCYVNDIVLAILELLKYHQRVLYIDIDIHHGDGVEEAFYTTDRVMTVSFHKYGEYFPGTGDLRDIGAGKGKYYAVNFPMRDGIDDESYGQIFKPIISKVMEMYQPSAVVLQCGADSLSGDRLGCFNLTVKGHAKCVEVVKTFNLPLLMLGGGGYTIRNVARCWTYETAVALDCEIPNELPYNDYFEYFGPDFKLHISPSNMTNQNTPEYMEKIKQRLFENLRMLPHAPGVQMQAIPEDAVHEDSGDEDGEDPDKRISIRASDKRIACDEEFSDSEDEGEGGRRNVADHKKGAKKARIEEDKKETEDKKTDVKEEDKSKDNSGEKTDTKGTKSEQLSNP
Chain of Histone deacetylase 2 (Q92769 whole entry): as the sequence (Q92769 whole entry, looked up) above
Chain of Histone deacetylase 3 (O15379 whole entry): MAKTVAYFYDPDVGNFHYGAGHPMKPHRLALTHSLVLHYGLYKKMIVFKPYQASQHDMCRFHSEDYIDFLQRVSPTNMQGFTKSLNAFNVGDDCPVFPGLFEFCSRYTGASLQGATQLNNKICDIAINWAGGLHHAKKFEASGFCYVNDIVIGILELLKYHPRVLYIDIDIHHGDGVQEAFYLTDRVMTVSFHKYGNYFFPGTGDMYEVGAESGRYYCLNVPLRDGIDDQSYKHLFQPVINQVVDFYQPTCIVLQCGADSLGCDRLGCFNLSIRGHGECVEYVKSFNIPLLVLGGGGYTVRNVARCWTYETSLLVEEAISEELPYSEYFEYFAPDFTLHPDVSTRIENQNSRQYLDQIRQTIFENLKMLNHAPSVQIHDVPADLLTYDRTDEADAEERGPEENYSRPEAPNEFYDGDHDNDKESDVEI
Chain of Histone deacetylase 4 (P56524 whole entry): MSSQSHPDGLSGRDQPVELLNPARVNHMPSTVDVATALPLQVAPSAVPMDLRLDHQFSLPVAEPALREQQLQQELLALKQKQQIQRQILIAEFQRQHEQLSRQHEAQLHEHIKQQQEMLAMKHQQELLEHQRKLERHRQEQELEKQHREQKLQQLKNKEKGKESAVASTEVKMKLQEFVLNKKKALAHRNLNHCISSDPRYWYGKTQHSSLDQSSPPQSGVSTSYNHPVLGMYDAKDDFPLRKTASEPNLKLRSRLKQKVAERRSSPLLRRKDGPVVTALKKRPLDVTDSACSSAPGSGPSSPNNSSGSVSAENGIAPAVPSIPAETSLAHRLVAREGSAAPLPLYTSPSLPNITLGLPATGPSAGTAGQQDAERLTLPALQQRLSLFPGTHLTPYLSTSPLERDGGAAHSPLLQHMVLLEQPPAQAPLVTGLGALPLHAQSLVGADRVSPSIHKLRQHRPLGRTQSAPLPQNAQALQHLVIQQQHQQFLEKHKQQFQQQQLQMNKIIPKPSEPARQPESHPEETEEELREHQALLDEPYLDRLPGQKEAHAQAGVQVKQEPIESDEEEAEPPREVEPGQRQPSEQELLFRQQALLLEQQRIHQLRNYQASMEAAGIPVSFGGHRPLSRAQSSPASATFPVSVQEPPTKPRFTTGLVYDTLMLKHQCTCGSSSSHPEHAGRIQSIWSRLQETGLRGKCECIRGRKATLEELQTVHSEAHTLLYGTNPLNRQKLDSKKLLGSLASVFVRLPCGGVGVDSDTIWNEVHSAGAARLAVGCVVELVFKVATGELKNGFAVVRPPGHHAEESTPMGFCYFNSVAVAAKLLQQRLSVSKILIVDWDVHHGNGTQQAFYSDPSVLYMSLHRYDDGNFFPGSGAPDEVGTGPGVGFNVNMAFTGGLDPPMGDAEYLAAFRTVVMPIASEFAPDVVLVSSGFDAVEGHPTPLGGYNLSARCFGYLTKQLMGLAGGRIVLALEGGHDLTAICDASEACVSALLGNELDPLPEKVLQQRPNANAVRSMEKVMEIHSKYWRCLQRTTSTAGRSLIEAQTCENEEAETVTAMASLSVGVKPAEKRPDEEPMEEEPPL
Chain of Histone deacetylase 5 (Q9UQL6 whole entry): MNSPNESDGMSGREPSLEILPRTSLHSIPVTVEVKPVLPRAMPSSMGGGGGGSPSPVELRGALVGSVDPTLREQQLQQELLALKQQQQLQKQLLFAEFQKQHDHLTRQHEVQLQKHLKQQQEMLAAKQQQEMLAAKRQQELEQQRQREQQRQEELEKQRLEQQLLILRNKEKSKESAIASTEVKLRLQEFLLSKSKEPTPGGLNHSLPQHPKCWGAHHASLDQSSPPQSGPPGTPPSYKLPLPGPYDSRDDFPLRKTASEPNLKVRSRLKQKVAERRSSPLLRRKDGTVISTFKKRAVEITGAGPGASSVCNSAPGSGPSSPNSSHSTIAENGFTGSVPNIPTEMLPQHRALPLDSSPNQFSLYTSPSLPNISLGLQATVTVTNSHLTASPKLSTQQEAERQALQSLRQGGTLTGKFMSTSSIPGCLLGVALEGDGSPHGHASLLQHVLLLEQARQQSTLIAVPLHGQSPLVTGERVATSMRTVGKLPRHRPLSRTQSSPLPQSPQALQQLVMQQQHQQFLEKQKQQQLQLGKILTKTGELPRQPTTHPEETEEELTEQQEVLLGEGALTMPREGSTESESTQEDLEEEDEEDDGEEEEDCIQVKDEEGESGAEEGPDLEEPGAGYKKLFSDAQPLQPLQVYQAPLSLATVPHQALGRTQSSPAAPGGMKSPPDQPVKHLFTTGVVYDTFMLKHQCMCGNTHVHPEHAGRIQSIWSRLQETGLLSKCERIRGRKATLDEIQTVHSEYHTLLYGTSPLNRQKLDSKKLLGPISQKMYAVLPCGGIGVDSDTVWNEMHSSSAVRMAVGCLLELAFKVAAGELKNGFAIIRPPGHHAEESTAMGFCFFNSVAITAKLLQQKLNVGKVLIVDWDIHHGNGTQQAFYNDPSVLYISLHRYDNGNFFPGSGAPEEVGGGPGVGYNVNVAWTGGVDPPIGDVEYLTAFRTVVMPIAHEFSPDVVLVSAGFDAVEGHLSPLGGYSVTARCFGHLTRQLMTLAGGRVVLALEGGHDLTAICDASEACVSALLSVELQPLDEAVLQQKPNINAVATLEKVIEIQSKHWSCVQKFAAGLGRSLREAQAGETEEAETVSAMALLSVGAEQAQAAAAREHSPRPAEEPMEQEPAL
Chain of Histone deacetylase 1 (Q13547 whole entry): as the sequence (Q13547 whole entry, looked up) above

Take `COc1ccc(C(=O)N2CCn3cc(C(=O)NO)cc3C2)cc1`: the pIC50 was 7.37 in data set [1] and 7.00 in [2]. The Ratio IC50 in the data set on HeLa turned out to be 130. Besides, in [3], the inhibition is below 20%.
`Cn1cccc1C(=O)NCc1ccc(C(=O)NO)cc1`: the Ratio IC50 in the data set on HeLa is 115. For the same compound, the inhibition in data set [3] is below 20%.
For the compound `COc1ccc(C(=O)N2CCn3nc(C(=O)NO)cc3C2)cc1`, in data set [1], the pIC50 was 6.09. Also, the Ratio IC50 in the data set with HeLa was 120. The inhibition in data set [3] is below 20%.
The corresponding values for `Cn1cc(C(=O)N2CCn3cc(C(=O)NO)cc3C2)c2ccccc21` are 6.72, 6.3 and below 20%.
Take `O=C(NO)c1cc2n(c1)CCN(C(=O)C1CCCCC1)C2`: the pIC50 in data set [1] was 7.00; in [2] it was 6.14. Moreover, the Ratio IC50 in the data set on HeLa is 250. In addition, in [3], the inhibition was below 20%.
With `O=C(NO)c1cc2n(c1)CCN(C(=O)c1ccc(-c3ccccc3)cc1)C2`, the pIC50 in [1] is 7.49. Moreover, in the data set on HeLa, the Ratio IC50 came out at 44. For the same compound, the inhibition in data set [3] is below 20%.
As for `Cn1cccc1C(=O)N1CCn2cc(C(=O)NO)nc2C1`, in [1], the pIC50 is 6.89. Further, the Ratio IC50 in the data set with HeLa came to 770. The inhibition in [3] is below 20%.
With `O=C(NO)c1cn2c(n1)CN(C(=O)c1ccc(-c3ccccc3)cc1)CC2`, the pIC50 in data set [1] was 7.06; in data set [2], 5.68. Moreover, the Ratio IC50 with HeLa came to 70. Also, in data set [3], the inhibition is below 20%.
`O=C(NO)c1cc2n(c1)CCN(C(=O)c1cc3ccccc3s1)C2`: the pIC50 in data set [1] was 7.41. Further, the Ratio IC50 in the data set with HeLa was 14. For the same compound, the inhibition in [3] was below 20%.
For `Cn1cccc1C(=O)N1CCn2nc(C(=O)NO)cc2C1`, the pIC50 was 6.46 in data set [1] and 5.66 in [2]. Further, the Ratio IC50 in the data set with HeLa was 220. Besides, in [3], the inhibition was below 20%.
Take `O=C(NO)c1cc2n(c1)CCN(C(=O)c1cc3ccccc3[nH]1)C2`: the pIC50 in [1] was 6.55. Besides, the Ratio IC50 in the data set with HeLa turned out to be 24. Also, the inhibition in [3] is below 20%.
As for `Cn1c(C(=O)N2CCn3cc(C(=O)NO)cc3C2)cc(Cl)c1Cl`, the pIC50 is 7.48 in data set [1] and 6.82 in data set [2]. In addition, the Ratio IC50 in the data set on HeLa was determined as 100. Also, the inhibition in data set [3] is below 20%.
For `Cn1ccc2cc(C(=O)N3CCn4cc(C(=O)NO)cc4C3)ccc21`, the pIC50 is 7.07 in data set [1] and 6.85 in data set [2]. For the same compound, the Ratio IC50 in the data set with HeLa worked out at 35. Also, the inhibition in data set [3] was below 20%.
In the case of `O=C(NO)c1cc2n(c1)CCN(C(=O)c1cccs1)C2`, the pIC50 in [1] is 6.96. Further, the Ratio IC50 in the data set with HeLa is 150. The inhibition in data set [3] was below 20%.
The corresponding values for `O=C(NO)c1cn2c(n1)CN(C(=O)c1cc3ccccc3s1)CC2` are 7.19, 52 and below 20%.
With `Cn1c(C(=O)N2CCn3nc(C(=O)NO)cc3C2)cc2ccccc21`, the values for the pIC50 in [1] and in data set [2] were 7.12 and 5.46, respectively. Besides, in the data set on HeLa, the Ratio IC50 was found to be 66. For the same compound, the inhibition in data set [3] is below 20%.
Regarding `Cn1cccc1C(=O)N1CCn2cc(C(=O)NO)cc2C1`, the pIC50 at Histone deacetylase 1 was 4.82; in data set [4], 4.39; in data set [1] it was 7.48; in data set [2], 7.16; at Histone deacetylase 4, below 4.30; at Histone deacetylase 2 it was 4.41. For the same compound, the pIC50 is 5.07 against Histone deacetylase 3, 4.54 on Histone deacetylase 5, 5.48 against Histone deacetylase 8 and 4.54 against Histone deacetylase 11. For the same compound, the inhibition in data set [3] was below 20%. In addition, the Papp in [5] was found to be 4.2 ×10⁻⁶ cm/s. The compound also yielded a solubility in [6] above 200 µM.
As to `Cn1cccc1C(=O)N1CCc2cc(C(=O)NO)ccc2C1`, in the data set on HeLa, the Ratio IC50 stood at 500. The inhibition in [3] is below 20%.
